From the supplement of paper PMC6045584
± gives the standard deviation of the averaged measurements.

Columns and labels:
Experiment in all cases: surviving fraction relative to DMSO-only wells; higher = less growth inhibition
Conditions in all cases: exposure time: 5 days
MLN-4924 = compound: NS(=O)(=O)OC[C@@H]1C[C@@H](n2ccc3c(N[C@H]4CCc5ccccc54)ncnc32)C[C@@H]1O [MLN-4924]
In short: (§1)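 Tumour cell lines in log phase were plated in 384-well plates at 250–500 cells per well, then, after 24 hours, exposed continuously for five days to inhibitors at 0.5, 1, 5, 10, 50, 100, 500 and 1000 nM. Viability came from CellTiter-Glo luminescence, and surviving fraction is that signal normalised to the median of DMSO-only wells. Plates were read after 10 minutes at room temperature, and each line, screened three times, was kept only when replicate Pearson r was >0.7 and median Z' was >0.3.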

[1] = compound: COc1cc2ncnc(Nc3ccc(F)c(Cl)c3)c2cc1NC(=O)/C=C/CN1CCCCC1
In short: as §1

TEMOZOLOMIDE = compound: Cn1nnc2c(C(N)=O)ncn2c1=O [TEMOZOLOMIDE]
In short: as §1

SOTRASTAURIN/AEB071 = compound: CN1CCN(c2nc(C3=C(c4c[nH]c5ccccc45)C(=O)NC3=O)c3ccccc3n2)CC1 [SOTRASTAURIN/AEB071]
In short: as §1

SORAFENIB = compound: CNC(=O)c1cc(Oc2ccc(NC(=O)Nc3ccc(Cl)c(C(F)(F)F)c3)cc2)ccn1 [SORAFENIB]
In short: as §1

[2] = compound: C[C@@H](Oc1cc(-c2cnn(C3CCNCC3)c2)cnc1N)c1c(Cl)ccc(F)c1Cl
In short: as §1

OLAPARIB = compound: O=C(c1cc(Cc2n[nH]c(=O)c3ccccc23)ccc1F)N1CCN(C(=O)C2CC2)CC1 [OLAPARIB]
In short: as §1

Q: For HS57T BREAST, which surviving fraction (MLN-4924; 0.5 nM) is on record?
A: 0.977 ± 0.059

Q: What about the surviving fraction (MLN-4924; 1 nM) of the same test system?
A: 0.977 ± 0.069

Q: What about the surviving fraction (MLN-4924; 5 nM) of the same test system?
A: 1.02 ± 0.064

Q: And the surviving fraction (MLN-4924; 10 nM)?
A: 1.01 ± 0.07

Q: What about the surviving fraction (MLN-4924; 50 nM) of the same test system?
A: 0.783 ± 0.093

Q: What about the surviving fraction (MLN-4924; 100 nM) of the same test system?
A: 0.523 ± 0.021

Q: What about the surviving fraction (MLN-4924; 500 nM) of the same test system?
A: 0.139 ± 0.015

Q: What about the surviving fraction (MLN-4924; 1000 nM) of the same test system?
A: 0.106 ± 0.0065

Q: And the surviving fraction ([1]; 0.5 nM)?
A: 0.945 ± 0.064

Q: And the surviving fraction ([1]; 1 nM)?
A: 1.02 ± 0.076

Q: What about the surviving fraction ([1]; 5 nM) of the same test system?
A: 1.07 ± 0.024

Q: What about the surviving fraction ([1]; 10 nM) of the same test system?
A: 1.04 ± 0.038

Q: And the surviving fraction ([1]; 50 nM)?
A: 1.04 ± 0.032

Q: What about the surviving fraction ([1]; 100 nM) of the same test system?
A: 1.04 ± 0.05

Q: What about the surviving fraction ([1]; 500 nM) of the same test system?
A: 0.86 ± 0.064

Q: And the surviving fraction ([1]; 1000 nM)?
A: 0.318 ± 0.026

Q: What about the surviving fraction (TEMOZOLOMIDE; 0.5 nM) of the same test system?
A: 0.907 ± 0.067

Q: What about the surviving fraction (TEMOZOLOMIDE; 1 nM) of the same test system?
A: 0.947 ± 0.056

Q: And the surviving fraction (TEMOZOLOMIDE; 5 nM)?
A: 1.01 ± 0.051

Q: And the surviving fraction (TEMOZOLOMIDE; 10 nM)?
A: 1.04 ± 0.049

Q: And the surviving fraction (TEMOZOLOMIDE; 50 nM)?
A: 1.02 ± 0.033

Q: What about the surviving fraction (TEMOZOLOMIDE; 100 nM) of the same test system?
A: 1.03 ± 0.074

Q: And the surviving fraction (TEMOZOLOMIDE; 500 nM)?
A: 0.93 ± 0.058

Q: What about the surviving fraction (TEMOZOLOMIDE; 1000 nM) of the same test system?
A: 0.948 ± 0.071

Q: What about the surviving fraction (SOTRASTAURIN/AEB071; 0.5 nM) of the same test system?
A: 1.06 ± 0.044

Q: And the surviving fraction (SOTRASTAURIN/AEB071; 1 nM)?
A: 1.08 ± 0.026

Q: And the surviving fraction (SOTRASTAURIN/AEB071; 5 nM)?
A: 1.12 ± 0.056

Q: What about the surviving fraction (SOTRASTAURIN/AEB071; 10 nM) of the same test system?
A: 1.09 ± 0.063

Q: What about the surviving fraction (SOTRASTAURIN/AEB071; 50 nM) of the same test system?
A: 1.03 ± 0.092

Q: And the surviving fraction (SOTRASTAURIN/AEB071; 100 nM)?
A: 1.05 ± 0.028

Q: What about the surviving fraction (SOTRASTAURIN/AEB071; 500 nM) of the same test system?
A: 1.03 ± 0.031

Q: What about the surviving fraction (SOTRASTAURIN/AEB071; 1000 nM) of the same test system?
A: 1 ± 0.087

Q: And the surviving fraction (SORAFENIB; 0.5 nM)?
A: 0.987 ± 0.058

Q: And the surviving fraction (SORAFENIB; 1 nM)?
A: 1.045 ± 0.0089

Q: What about the surviving fraction (SORAFENIB; 5 nM) of the same test system?
A: 1.05 ± 0.031

Q: And the surviving fraction (SORAFENIB; 10 nM)?
A: 1.082 ± 0.0081

Q: And the surviving fraction (SORAFENIB; 50 nM)?
A: 1.09 ± 0.057

Q: What about the surviving fraction (SORAFENIB; 100 nM) of the same test system?
A: 1.15 ± 0.084

Q: And the surviving fraction (SORAFENIB; 500 nM)?
A: 0.965 ± 0.059

Q: What about the surviving fraction (SORAFENIB; 1000 nM) of the same test system?
A: 0.951 ± 0.021

Q: And the surviving fraction ([2]; 0.5 nM)?
A: 0.904 ± 0.058

Q: What about the surviving fraction ([2]; 10 nM) of the same test system?
A: 0.98 ± 0.027

Q: What about the surviving fraction ([2]; 50 nM) of the same test system?
A: 0.971 ± 0.04

Q: What about the surviving fraction ([2]; 100 nM) of the same test system?
A: 0.926 ± 0.06

Q: What about the surviving fraction ([2]; 500 nM) of the same test system?
A: 0.568 ± 0.016

Q: What about the surviving fraction ([2]; 1000 nM) of the same test system?
A: 0.492 ± 0.021

Q: What about the surviving fraction (OLAPARIB; 0.5 nM) of the same test system?
A: 1.09 ± 0.06

Q: And the surviving fraction (OLAPARIB; 1 nM)?
A: 1.11 ± 0.036

Q: And the surviving fraction (OLAPARIB; 5 nM)?
A: 1.09 ± 0.05

Q: What about the surviving fraction (OLAPARIB; 10 nM) of the same test system?
A: 1.13 ± 0.05

Q: What about the surviving fraction (OLAPARIB; 50 nM) of the same test system?
A: 1.1 ± 0.022

Q: What about the surviving fraction (OLAPARIB; 100 nM) of the same test system?
A: 1.04 ± 0.053

Q: What about the surviving fraction (OLAPARIB; 500 nM) of the same test system?
A: 0.999 ± 0.024

Q: And the surviving fraction (OLAPARIB; 1000 nM)?
A: 0.914 ± 0.067
